In data set [1] the target is T1, Alpha-2B adrenergic receptor (Homo sapiens, UniProt P18089).
T1 sequence (P18089 whole entry): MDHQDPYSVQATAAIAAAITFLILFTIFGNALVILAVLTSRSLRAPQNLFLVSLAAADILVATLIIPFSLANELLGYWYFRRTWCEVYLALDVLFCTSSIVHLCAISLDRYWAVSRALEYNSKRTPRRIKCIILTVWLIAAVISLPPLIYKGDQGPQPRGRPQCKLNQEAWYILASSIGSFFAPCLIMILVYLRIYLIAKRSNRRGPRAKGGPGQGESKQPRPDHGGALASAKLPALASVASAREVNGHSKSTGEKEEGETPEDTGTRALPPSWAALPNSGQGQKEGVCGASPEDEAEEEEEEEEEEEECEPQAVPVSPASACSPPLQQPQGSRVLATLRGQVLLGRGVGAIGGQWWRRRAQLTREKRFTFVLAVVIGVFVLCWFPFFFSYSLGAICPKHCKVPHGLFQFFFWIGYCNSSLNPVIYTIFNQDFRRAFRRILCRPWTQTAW
In words: Compound was evaluated for binding affinity against Alpha-2B adrenergic receptor using radioligand binding assay.

The target of a further data set is D(2) dopamine receptor (Homo sapiens, UniProt P14416). Description: Compound was evaluated for binding affinity against Dopamine D2 receptor using radioligand binding assay.
The target in data set [2] is T2, Muscarinic acetylcholine receptor M2 (Homo sapiens, UniProt P08172).
T2 sequence (P08172 whole entry): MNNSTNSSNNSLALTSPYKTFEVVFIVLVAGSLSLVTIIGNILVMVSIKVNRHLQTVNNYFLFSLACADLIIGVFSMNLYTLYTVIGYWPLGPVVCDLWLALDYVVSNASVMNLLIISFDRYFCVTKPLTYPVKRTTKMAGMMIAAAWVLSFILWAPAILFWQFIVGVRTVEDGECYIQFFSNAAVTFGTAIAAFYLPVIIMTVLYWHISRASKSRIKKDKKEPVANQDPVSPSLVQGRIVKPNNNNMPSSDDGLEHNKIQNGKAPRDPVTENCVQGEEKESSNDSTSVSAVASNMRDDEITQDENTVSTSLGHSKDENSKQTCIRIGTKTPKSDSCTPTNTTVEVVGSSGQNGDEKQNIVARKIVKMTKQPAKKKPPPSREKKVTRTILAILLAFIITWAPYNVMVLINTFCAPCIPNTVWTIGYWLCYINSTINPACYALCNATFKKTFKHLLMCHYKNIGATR
In words: Compound was evaluated for binding affinity against Muscarinic M2 receptor using radioligand binding assay.

For data set [3], the target named is Muscarinic acetylcholine receptor M3 (Homo sapiens, UniProt P20309). In words: Compound was evaluated for binding affinity against Muscarinic M3 receptor using radioligand binding assay.
Data set [4] has as its target T3, Type-1 angiotensin II receptor (Homo sapiens, UniProt P30556).
T3 sequence (P30556 whole entry): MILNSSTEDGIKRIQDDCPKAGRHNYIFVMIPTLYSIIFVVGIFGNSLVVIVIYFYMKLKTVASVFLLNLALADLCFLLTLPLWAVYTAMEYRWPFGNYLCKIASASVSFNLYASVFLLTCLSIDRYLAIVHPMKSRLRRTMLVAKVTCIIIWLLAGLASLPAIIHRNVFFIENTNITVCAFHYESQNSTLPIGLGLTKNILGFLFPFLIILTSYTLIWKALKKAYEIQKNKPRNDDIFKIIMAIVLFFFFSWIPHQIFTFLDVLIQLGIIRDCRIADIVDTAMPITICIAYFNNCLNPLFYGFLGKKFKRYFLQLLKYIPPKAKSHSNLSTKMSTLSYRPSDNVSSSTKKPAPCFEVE
Description: Compound was evaluated for binding affinity against Angiotensin II receptor, type 1 using radioligand binding assay.

The target in data set [5] is T4, Alpha-2A adrenergic receptor (Homo sapiens, UniProt P08913).
T4 sequence (P08913 whole entry): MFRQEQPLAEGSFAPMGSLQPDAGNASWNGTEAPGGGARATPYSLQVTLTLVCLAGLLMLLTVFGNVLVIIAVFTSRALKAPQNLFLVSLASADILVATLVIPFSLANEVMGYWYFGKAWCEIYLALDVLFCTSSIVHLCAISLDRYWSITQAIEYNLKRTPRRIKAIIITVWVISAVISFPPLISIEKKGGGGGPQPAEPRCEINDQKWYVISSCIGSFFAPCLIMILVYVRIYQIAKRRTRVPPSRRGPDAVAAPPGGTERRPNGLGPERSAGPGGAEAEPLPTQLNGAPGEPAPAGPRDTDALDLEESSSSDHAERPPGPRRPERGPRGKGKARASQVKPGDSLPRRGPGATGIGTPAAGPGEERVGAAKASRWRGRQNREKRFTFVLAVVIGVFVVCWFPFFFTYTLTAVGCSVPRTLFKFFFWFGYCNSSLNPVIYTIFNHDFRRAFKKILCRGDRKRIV
Description: Compound was evaluated for binding affinity against Alpha-2A adrenergic receptor using radioligand binding assay.

Data set [6] concerns the target T5, 5-hydroxytryptamine receptor 1A (Mus musculus, UniProt Q64264).
T5 sequence (Q64264 whole entry): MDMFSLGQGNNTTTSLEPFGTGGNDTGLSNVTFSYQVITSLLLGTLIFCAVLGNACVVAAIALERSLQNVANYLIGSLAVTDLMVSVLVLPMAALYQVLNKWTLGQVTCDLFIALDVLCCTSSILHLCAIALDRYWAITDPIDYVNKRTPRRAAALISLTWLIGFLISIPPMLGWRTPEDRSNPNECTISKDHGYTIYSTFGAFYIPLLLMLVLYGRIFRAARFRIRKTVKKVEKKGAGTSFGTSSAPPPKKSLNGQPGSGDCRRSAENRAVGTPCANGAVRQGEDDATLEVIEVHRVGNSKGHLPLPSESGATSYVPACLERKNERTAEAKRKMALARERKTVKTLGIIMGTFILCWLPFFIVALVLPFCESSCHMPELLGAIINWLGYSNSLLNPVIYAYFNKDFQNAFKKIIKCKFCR
In words: Compound was evaluated for binding affinity against 5-hydroxytryptamine 1A receptor using radioligand binding assay.

Data set [7] is described as follows: Compound was tested for its half-life period at an intravenous dose of 3 ug/kg. It is filed as ADME, organism-based, Sus scrofa. The settings on record: pig, in vivo, 0.003 mg/kg.
Data set [8] deals with Serotonin 3 (5-HT3) receptor. In words: Compound was evaluated for binding affinity against 5-hydroxytryptamine 3 receptor using radioligand binding assay. It is filed as protein-complex assay.
For the next data set, the system named is Sus scrofa. In words: Antagonism of 5-HT-induced tachycardia in anesthetized, vagotomized Yucatan micropigs at 0.03-10 ug/kg dose administered intravenously. It is filed as functional. The settings on record: iv, read-out: ID50 (the source's name).
Data set [9] deals with 5-hydroxytryptamine receptor 4 (Cavia porcellus, UniProt O70528). In words: Compound was evaluated for binding affinity against 5-hydroxytryptamine 4 receptor using radioligand binding assay using [3H]GR as radioligand.
Another data set concerns the target D(1A) dopamine receptor (Homo sapiens, UniProt P21728). Description: Compound was evaluated for binding affinity against Dopamine D1 receptor using radioligand binding assay.

Molecules are shown by their SMILES. Bounds are passed on as bounds.

Sequence of Muscarinic acetylcholine receptor M3 (P20309 whole entry): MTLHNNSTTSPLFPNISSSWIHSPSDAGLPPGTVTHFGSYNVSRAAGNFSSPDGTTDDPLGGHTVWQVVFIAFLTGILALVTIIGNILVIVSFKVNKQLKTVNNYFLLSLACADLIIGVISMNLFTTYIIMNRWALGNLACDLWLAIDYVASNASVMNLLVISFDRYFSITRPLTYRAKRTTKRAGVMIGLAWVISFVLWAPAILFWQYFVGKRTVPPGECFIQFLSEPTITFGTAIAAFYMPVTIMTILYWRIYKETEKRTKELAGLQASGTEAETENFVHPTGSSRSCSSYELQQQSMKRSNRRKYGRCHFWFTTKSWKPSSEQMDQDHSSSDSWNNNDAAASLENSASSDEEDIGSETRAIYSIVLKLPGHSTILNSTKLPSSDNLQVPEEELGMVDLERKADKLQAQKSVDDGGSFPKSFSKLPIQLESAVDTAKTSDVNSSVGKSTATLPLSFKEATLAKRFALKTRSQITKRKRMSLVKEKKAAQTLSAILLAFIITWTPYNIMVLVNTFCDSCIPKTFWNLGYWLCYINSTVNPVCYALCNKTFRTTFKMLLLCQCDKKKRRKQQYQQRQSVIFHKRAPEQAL
Sequence of 5-hydroxytryptamine receptor 4 (O70528 whole entry): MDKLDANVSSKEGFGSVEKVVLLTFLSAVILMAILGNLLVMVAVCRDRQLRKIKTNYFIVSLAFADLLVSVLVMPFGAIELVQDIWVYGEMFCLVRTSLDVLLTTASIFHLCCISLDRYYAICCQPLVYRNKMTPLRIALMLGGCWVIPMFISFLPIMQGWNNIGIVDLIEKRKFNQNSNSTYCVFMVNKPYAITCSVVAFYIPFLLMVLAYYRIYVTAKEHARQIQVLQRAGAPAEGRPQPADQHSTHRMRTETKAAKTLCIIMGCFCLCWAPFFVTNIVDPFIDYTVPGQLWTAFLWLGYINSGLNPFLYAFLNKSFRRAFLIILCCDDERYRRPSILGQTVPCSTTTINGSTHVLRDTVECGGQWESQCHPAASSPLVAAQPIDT
Sequence of D(1A) dopamine receptor (P21728 whole entry): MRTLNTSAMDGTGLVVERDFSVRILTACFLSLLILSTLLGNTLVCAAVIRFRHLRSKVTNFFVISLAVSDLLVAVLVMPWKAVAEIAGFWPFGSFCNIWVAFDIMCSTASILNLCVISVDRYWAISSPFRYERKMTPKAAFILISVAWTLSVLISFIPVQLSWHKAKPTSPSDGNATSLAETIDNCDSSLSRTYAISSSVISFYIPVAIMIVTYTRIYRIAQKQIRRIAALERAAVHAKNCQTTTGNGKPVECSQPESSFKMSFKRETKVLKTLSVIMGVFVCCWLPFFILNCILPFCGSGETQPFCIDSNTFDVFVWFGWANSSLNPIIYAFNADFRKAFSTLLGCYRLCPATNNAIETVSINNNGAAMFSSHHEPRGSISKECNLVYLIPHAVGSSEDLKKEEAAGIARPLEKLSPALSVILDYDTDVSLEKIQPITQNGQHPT
Sequence of D(2) dopamine receptor (P14416 whole entry): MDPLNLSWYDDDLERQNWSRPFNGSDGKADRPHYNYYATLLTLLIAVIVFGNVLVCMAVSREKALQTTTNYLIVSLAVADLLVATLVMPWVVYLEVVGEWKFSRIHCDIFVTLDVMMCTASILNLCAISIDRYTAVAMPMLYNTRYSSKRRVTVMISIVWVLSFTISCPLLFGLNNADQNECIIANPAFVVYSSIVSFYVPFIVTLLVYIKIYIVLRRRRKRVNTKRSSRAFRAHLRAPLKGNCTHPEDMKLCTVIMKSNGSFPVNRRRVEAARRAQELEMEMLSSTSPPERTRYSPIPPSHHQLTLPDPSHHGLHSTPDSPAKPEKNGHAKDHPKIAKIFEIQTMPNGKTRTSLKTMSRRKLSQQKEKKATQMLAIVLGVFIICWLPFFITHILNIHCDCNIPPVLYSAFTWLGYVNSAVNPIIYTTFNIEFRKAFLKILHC

As for `COc1ccc(CCCN2CCC(CCC(=O)c3cc(Cl)c(N)c4c3OCCO4)CC2)cc1OC`, the inhibition constant (Ki) in data set [1] is 2510 nM; at D(2) dopamine receptor, 316 nM; in [2] it was 1260 nM; in [3], 2000 nM; in data set [4], over 10 µM; in [5], 100 nM. Further, the Ki in data set [6] is 1000 nM; in [9], 0.1 nM; on D(1A) dopamine receptor, over 10 µM. For the same molecule, the half-life in [7] was over 360 min. For the same molecule, the “Log Ki” value in [8] is -6.3. Also, in the data set with Sus scrofa, the ED50 was found to be 0.55 µg/kg.

Source of the values: ChEMBL document CHEMBL1153669, “Rs-100235: A high affinity 5-HT4 receptor antagonist” (Bioorg Med Chem Lett, 1995).
